Laboratory results published in patent publication US8097733B2, “Pyrazole derivatives as 5-LO-inhibitors” (Pfizer Inc., priority 2007, dated 2012).

Columns and labels:
recombinant human 5-LOX = biological target: T1, recombinant human 5-LOX (Homo sapiens, UniProt P09917); experiment: Fluorescence Intensity 5-LOX Enzyme Assay; format: biochemical; details: crude lysate of recombinant human 5-LOX; highest inhibitor concentration tested typically 25 μM
T1 sequence (P09917 1-674): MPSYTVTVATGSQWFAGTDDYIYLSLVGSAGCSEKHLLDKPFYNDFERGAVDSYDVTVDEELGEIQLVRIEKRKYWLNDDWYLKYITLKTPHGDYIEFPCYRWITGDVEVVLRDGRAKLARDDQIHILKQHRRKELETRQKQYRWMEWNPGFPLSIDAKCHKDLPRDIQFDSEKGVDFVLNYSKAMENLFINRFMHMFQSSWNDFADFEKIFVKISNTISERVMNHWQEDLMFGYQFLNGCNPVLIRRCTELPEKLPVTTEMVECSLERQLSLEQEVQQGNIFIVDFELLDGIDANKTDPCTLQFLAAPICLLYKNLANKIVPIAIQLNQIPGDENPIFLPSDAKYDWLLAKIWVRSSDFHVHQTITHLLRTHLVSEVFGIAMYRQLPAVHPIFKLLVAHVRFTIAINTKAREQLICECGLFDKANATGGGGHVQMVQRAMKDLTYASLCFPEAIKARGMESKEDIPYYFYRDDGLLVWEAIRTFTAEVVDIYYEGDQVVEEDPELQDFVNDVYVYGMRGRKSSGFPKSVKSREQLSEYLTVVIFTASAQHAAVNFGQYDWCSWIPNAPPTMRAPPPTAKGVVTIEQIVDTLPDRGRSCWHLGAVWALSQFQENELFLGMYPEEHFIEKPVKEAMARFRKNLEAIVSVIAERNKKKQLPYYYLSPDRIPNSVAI
Outline: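 Crude lysate enzyme with H2DCFDA 10 μM (5 min dye pre-incubation), inhibitor pre-incubated 10 min; reaction started with 3 μM arachidonic acid plus 10 μM ATP in Tris pH 7.5, CaCl2, EDTA, 20 min at room temperature, acetonitrile stop. Fluorescein fluorescence; 7-point 4-parameter IC50, top 25 μM, 2.5% DMSO.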

[1] = tested on: eicosanoid production in the rat air pouch; experiment: Carrageenan-induced eicosanoid production in the rat air pouch; format: in vivo; details: po, male Lewis rats, 3 mpk by gavage 1 hour prior to carrageenan
Experimental: Carrageenan-Induced Eicosanoid Production in the Rat Air Pouch:
Male Lewis rats (175-200 g), Charles River Laboratories, Wilmington, Mass.) were used in the study. Air pouches were produced by subcutaneous injection of 20 ml of sterile air into the intrascapular area of the back. Pouches were allowed to develop for 1 day. Animals (6 per group) were fasted with free access to water for 16 to 24 hours prior to drug administration. Drugs or vehicle were administered by gavage 1 hour prior to injection of 2 ml of a 1% suspension of carrageenan (FMC BioPolymer, Philadelphia, Pa., Cat. # GP209-NF) dissolved in saline into the pouch. At 3 hours post-carrageenan injection, 1 ml of 50 μg/ml calcium ionophore in saline (A23187, Sigma Chemical Co, St. Louis, M, Cat. #C-7522) was injected into the pouch and the pouch fluid collected 10 minutes later by lavage. The fluid was centrifuged at 3500 rpm for 10 minutes at 4° C., and the supernatants were collected for analysis. Leukotriene and prostaglandin levels were quantitated by ELISA according to the manufacturer's directions (Cayman Chemical Company, Ann Arbor, Mi).

[2] = tested on: human whole blood (leukotriene and prostaglandin levels); experiment: Eicosanoid production from human whole blood; format: cell-based; details: human whole blood stimulated with calcium ionophore A23187 and arachidonic acid; ELISA
Outline: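 Pooled heparinized whole blood from healthy or asthmatic donors was preincubated with compound for 10 min at room temperature, with 2.5% DMSO final. It was stimulated with calcium ionophore A23187 plus arachidonic acid (30 μM) in 60% ethanol for 15 min at 37 °C. Plasma leukotrienes and prostaglandins were measured by ELISA.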

Compound	IC50 (recombinant human 5-LOX)	IC50 [2]	inhibition at 3 mg/kg [1]
Cc1nccn1-c1ccc(Sc2cccc(C3(C(N)=O)CCOCC3)c2)cc1 [(d), 4-(3-(4-(2-methyl-1H-imidazol-1-yl)phenylthio)phenyl)-tetrahydro-2H-pyran-4-carboxamide, reference compound]	877 nM	275 nM	73.1%
Cn1nccc1Oc1ccc(Sc2cccc(C3(C(N)=O)CCOCC3)c2)cc1C#N [Example 51, 4-[3-({3-cyano-4-[(1-methyl-1H-pyrazol-5-yl)oxy]phenyl}thio)phenyl]tetrahydro-2H-pyran-4-carboxamide]	554 nM	203 nM	77%
Cn1nccc1-c1ccc(Sc2cccc(C3(C(N)=O)CCOCC3)c2)c(Cl)c1 [Example 13, 4-(3-{[2-chloro-4-(1-methyl-1H-pyrazol-5-yl)phenyl]thio}phenyl)tetrahydro-2H-pyran-4-carboxamide]	54 nM	119 nM	1%
Cn1ncc(Cl)c1-c1ccc(Sc2cccc(C3(C(N)=O)CCOCC3)c2)cc1 [Example 57, 4-(3-{[4-(4-chloro-1-methyl-1H-pyrazol-5-yl)phenyl]thio}phenyl)tetrahydro-2H-pyran-4-carboxamide]	85.1 nM	514 nM	62%
Cn1nccc1-c1ccc(Sc2c(F)ccc(C3(C(N)=O)CCOCC3)c2F)cc1 [Example 20, 4-(2,4-difluoro-3-{[4-(1-methyl-1H-pyrazol-5-yl)phenyl]thio}phenyl)-tetrahydro-2H-pyran-4-carboxamide]	225 nM	448 nM	91%
C[C@H]1C[C@@](C(N)=O)(c2cccc(Sc3ccc(-c4ccnn4C)cc3)c2F)CCO1 [Example 29, (2S,4R)-4-(2-fluoro-3-(4-(1-methyl-1H-pyrazol-5-yl)phenylthio)phenyl)-2-methyl-tetrahydro-2H-pyran-4-carboxamide]	14.9 nM	265 nM	100%
Cn1nccc1-c1ccc(Sc2cccc(C3(C#N)CCOCC3)c2F)cc1 [Example 48, 4-(2-fluoro-3-{[4-(1-methyl-1H-pyrazol-6-yl)phenyl]thio}phenyl)tetrahydro-2H-pyran-4-carbonitrile]	387 nM	124 nM	38%
C[C@H]1C[C@@](C(N)=O)(c2cccc(Sc3ccc(C(=O)c4ccnn4C)cc3)c2F)CCO1 [Example 40]	21.9 nM	407 nM	96%
CNC(=O)C1(c2cccc(Sc3ccc(-c4ccnn4C)cc3)c2F)CCOCC1 [Example 17, 4-(2-fluoro-3-{[4-(1-methyl-1H-pyrazol-5-yl)phenyl]thio}phenyl)-N-methyl-tetrahydro-2H-pyran-4-carboxamide]	146 nM	962 nM	83%
CNC(=O)C1(c2cc(F)cc(Sc3ccc(-c4ccnn4C)cc3)c2F)CCOCC1 [Example 19, 4-(2,5-difluoro-3-{[4-(1-methyl-1H-pyrazol-5-yl)phenyl]thio}phenyl)-N-methyltetrahydro-2H-pyran-4-carboxamide]	114 nM	996 nM	95.3%

Continued, in another order:

IC50 (recombinant human 5-LOX)	IC50 [2]	Compound	inhibition at 3 mg/kg [1]
23.8 nM	407 nM	C[C@H]1C[C@@](C(N)=O)(c2cccc(Sc3ccc(C(=O)c4ccnn4C)cc3)c2)CCO1 [Example 39, (2S,4R)-2-methyl-4-(3-(4-(1-methyl-1H-pyrazole-5-carbonyl)phenylthio)phenyl)-tetrahydro-2H-pyran-4-carboxamide]	66%
21.5 nM	59.8 nM	C[C@H]1C[C@@](C#N)(c2cccc(Sc3ccc(-c4ccnn4C)c(F)c3)c2F)CCO1 [31(1), (2S,4R)-4-(2-fluoro-3-(3-fluoro-4-(1-methyl-1H-pyrazol-5-yl)phenylthio)phenyl)-2-methyl-tetrahydro-2H-pyran-4-carbonitrile]	96%
16.4 nM	185 nM	C[C@H]1C[C@@](C(N)=O)(c2cccc(Sc3ccc(-c4ccnn4C)cc3)c2)CCO1 [Example 22, (2S,4R)-2-methyl-4-(3-(4-(1-methyl-1H-pyrazol-5-yl)phenylthio)phenyl)-tetrahydro-2H-pyran-4-carboxamide]	99.5%
110 nM	492 nM	Cn1nccc1Cc1ccc(Sc2cccc(C3(C(N)=O)CCOCC3)c2)cc1F [Example 33, 4-{3-[3-Fluoro-4-(2-methyl-2H-pyrazol-3-ylmethyl)phenylsulfanyl]-phenyl}-tetrahydro-pyran-4-carboxylic acid amide]	76%
113 nM	55.7 nM	C[C@H]1C[C@@](C#N)(c2cccc(Sc3ccc(-c4ccnn4C)c(F)c3)c2)CCO1 [30(2), (2S,4R)-4-(3-(3-fluoro-4-(1-methyl-1H-pyrazol-5-yl)phenylthio)phenyl)-2-methyl-tetrahydro-2H-pyran-4-carbonitrile]	95%
692 nM	150 nM	C[C@H]1C[C@@](C#N)(c2ccc(F)c(Sc3ccc(-c4ccnn4C)cc3)c2)CCO1 [Example 24, (2S,4R)-4-(4-fluoro-4-(4-(1-methyl-1H-pyrazol-5-yl)phenylthio)phenyl)-2-methyl-tetrahydro-2H-pyran-4-carbonitrile]	32%
660 nM	196 nM	Cn1nccc1-c1ccc(Sc2cccc(C3(C(N)=O)CCOCC3)c2)cc1C#N [Example 2, 4-(3-{[3-Cyano-4-(1-methyl-1H-pyrazol-5-yl)phenyl]thio}phenyl)tetrahydro-2H-pyran-4-carboxamide]	0%
39.8 nM	314 nM	C[C@H]1C[C@@](C(N)=O)(c2ccc(F)c(Sc3ccc(-c4ccnn4C)cc3)c2)CCO1 [Example 23, (2S,4R)-4-(4-fluoro-3-(4-(1-methyl-1H-pyrazol-5-yl)phenylthio)phenyl)-2-methyl-tetrahydro-2H-pyran-4-carboxamide]	76%
4130 nM	539 nM	Cn1nccc1-c1ccc(Sc2cccc(C3(C#N)CCOCC3)c2)cc1F [Example 46, 4-(3-{[3-fluoro-4-(1-methyl-1H-pyrazol-5-yl)phenyl]thio}phenyl)tetrahydro-2H-pyran-4-carbonitrile]	0%
19.8 nM	138 nM	C[C@H]1C[C@@](C(N)=O)(c2cc(F)cc(Sc3ccc(-c4ccnn4C)cc3)c2)CCO1 [Example 27, (2S,4R)-4-(3-fluoro-5-(4-(1-methyl-1H-pyrazol-5-yl)phenylthio)phenyl)-2-methyl-tetrahydro-2H-pyran-4-carboxamide]	100%
331 nM	123 nM	C[C@H]1C[C@@](C#N)(c2cc(F)cc(Sc3ccc(-c4ccnn4C)cc3)c2)CCO1 [27(2), (2S,4R)-4-(3-fluoro-5-(4-(1-methyl-1H-pyrazol-5-yl)phenylthio)phenyl)-2-methyl-tetrahydro-2H-pyran-4-carbonitrile]	100%
151 nM	107 nM	C[C@H]1C[C@@](C#N)(c2cc(F)cc(Sc3ccc(-c4ccnn4C)c(F)c3)c2)CCO1 [32(1), (2S,4R)-4-(3-fluoro-5-(3-fluoro-4-(1-methyl-1H-pyrazol-5-yl)phenylthio)phenyl)-2-methyl-tetrahydro-2H-pyran-4-carbonitrile]	93%
